Data on 15 compounds can be found in US20230066011A1, “PYRROLOPYRIMIDINE DERIVATIVE, AND PHARMACEUTICAL COMPOSITION FOR PREVENTING OR TREATING PROTEIN KINASE-RELATED DISEASE COMPRISING SAME AS ACTIVE INGREDIENT” (VORONOI CO., LTD., priority 2019, published 2023).

Bounds are passed on as bounds.

One assay relates to IL-6. Kind of assay: Inhibition of LPS-induced IL-6 secretion of THP-1 monocytes (ELISA). The assay is classed as cell-based, human. The settings on record: Homo sapiens, THP-1; compound 0.5 μM, LPS 500 ng/mL, 24 hours; read-out: THP1/IL6 (% inhib). In short, it runs like this:
(§1)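 THP-1 monocytes grown 16 h at 37 °C, pretreated 1 h with compound at final 0.5 μM, then stimulated with LPS at final 500 ng/mL for 24 h. IL-6 and TNF-α in culture supernatant measured by ELISA (OD 450 nm).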

The subject of another assay is TNF-α. In words: Inhibition of LPS-induced TNF-α secretion of THP-1 monocytes (ELISA). The assay is classed as cell-based, human. The settings on record: Homo sapiens, THP-1; compound 0.5 μM, LPS 500 ng/mL, 24 hours; read-out: THP-1/TNF-α (% inhib). In short, it runs like this:
as §1

For a further assay, the system named is human DYRK1A and tau. In words: Inhibition of tau phosphorylation, ClariCELL Kinase Cell-Based Assay, HEK 293 cells expressing human DYRK1A and tau. The settings on record: for inhibition at 1 µM: HEK293, read-out: % inhibition at 1 uM, tau phosphorylation, compound 1 uM; for inhibition at 0.25 µM / inhibition at 0.5 µM: HEK293, tau phosphorylation; for inhibition at 0.25 µM: compound 0.25 uM; for inhibition at 0.5 µM: compound 0.5 uM. In short, it runs like this: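 Cell-based service assay: HEK 293 cells transiently expressing human DYRK1A and tau were treated with compound and lysed. Released tau was plate-captured and its phosphorylation quantified by ELISA with a phospho-tau-specific antibody.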

The target of a further assay is LRRK2 (G2019S) (Homo sapiens, UniProt Q5S007, G2019S). Kind of assay: LRRK2 G2019S enzyme inhibition, ADP-Glo kinase assay. The assay is classed as biochemical. More on the design: purchased SignalChem L10-12GG. Particulars: ATP 25 μM. The method, boiled down:
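IC50 derived from luminescent ADP-Glo readout against untreated solvent control, twelve final compound concentrations from 50 μM downward. Reaction: recombinant human LRRK2 G2019S enzyme, 25 μM ATP, substrate, pH 7.4 Tris buffer with MgCl2/BSA/DTT, 25° C. for 2 hours.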

In the next assay the test system is MDA-MB-231 cell line. Kind of assay: Inhibition of proliferation of MDA-MB-231 cancer cells (Cell Titer-Glo). The assay is classed as cell-based. Particulars: Homo sapiens, 72 hours. The method, boiled down:
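Growth inhibition over 72 h: cells seeded at 2,000/well and dosed at eleven 3-fold-spaced final concentrations from 10.000000 μM. Read-out is ATP luminescence (Cell Titer-Glo, 10 min, room temperature), with GI50 derived from it.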

LRRK2 (G2019S), sequence (Q5S007 970-2527 G2019S limits assumed): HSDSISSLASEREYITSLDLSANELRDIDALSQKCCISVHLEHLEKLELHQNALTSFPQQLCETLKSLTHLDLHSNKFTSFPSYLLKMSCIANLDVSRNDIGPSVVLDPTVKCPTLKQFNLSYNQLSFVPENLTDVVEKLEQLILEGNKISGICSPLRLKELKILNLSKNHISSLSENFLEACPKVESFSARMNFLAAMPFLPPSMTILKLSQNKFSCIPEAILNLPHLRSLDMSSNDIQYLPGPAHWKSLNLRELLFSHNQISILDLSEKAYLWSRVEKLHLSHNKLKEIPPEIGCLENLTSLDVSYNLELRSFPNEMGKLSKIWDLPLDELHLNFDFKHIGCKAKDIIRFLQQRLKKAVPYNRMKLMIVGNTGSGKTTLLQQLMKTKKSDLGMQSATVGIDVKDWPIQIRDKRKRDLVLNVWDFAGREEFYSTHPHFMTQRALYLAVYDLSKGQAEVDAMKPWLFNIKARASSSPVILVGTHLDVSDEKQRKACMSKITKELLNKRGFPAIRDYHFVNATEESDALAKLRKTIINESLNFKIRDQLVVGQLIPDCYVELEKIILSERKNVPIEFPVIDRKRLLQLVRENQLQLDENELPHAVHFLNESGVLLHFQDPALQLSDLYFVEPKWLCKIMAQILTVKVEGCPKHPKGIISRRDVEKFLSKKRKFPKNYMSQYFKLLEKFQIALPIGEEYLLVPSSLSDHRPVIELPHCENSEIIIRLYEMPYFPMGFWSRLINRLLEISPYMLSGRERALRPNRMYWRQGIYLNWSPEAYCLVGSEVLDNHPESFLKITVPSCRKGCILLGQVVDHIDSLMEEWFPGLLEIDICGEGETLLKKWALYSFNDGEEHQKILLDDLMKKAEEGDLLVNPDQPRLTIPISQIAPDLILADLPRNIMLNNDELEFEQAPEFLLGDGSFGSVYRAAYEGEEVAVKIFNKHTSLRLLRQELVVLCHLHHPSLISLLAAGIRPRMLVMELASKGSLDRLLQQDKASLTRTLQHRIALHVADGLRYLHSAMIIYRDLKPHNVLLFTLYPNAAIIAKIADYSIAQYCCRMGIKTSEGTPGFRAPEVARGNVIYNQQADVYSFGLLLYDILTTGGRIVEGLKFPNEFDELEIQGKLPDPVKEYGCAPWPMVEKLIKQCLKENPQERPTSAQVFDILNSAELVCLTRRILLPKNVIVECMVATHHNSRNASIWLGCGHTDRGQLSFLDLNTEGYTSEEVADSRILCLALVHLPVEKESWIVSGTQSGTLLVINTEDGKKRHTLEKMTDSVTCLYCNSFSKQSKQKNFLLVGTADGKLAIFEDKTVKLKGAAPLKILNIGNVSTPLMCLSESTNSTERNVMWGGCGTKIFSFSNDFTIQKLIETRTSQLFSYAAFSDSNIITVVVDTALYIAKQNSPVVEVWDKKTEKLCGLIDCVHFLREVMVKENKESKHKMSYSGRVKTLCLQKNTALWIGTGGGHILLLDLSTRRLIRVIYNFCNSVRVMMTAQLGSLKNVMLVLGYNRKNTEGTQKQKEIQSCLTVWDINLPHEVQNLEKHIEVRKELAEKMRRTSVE

As to `CNc1nc(Nc2ccc(C(=O)N3CC[C@H](N4CCOCC4)C3)c3c2OCC3)nc2[nH]cc(C(F)(F)F)c12` [Example 236, (S)-(7-((4-(methylamino)-5-(trifluoromethyl)-7H-pyrrolo[2,3-d]pyrimidin-2-yl)amino)-2,3-dihydrobenzofuran-4-yl)(3-morpholinopyrrolidin-1-yl)methanone], the inhibition at 0.5 µM in the assay with IL-6 was 22.9%; with TNF-α, 13.6%; in the assay with human DYRK1A and tau, 59.5%. In addition, the inhibition at 1 µM in the assay with human DYRK1A and tau is 67%. In the assay on human DYRK1A and tau, this compound returned an inhibition at 0.25 µM of 34.1%. For the same compound, the 50% inhibitory concentration (IC50) against LRRK2 (G2019S) was under 100 nM.

As for `CCNc1nc(Nc2ccc(C(=O)N3CCC(N4CCOCC4)CC3)c3c2OCC3)nc2[nH]cc(C#N)c12` [Example 347, 4-(ethylamino)-2-((4-(4-morpholino-piperidine-1-carbonyl)-2,3-dihydro-benzofuran-7-yl)amino)-7H-pyrrolo[2,3-d]pyrimidine-5-carbonitrile], the inhibition at 0.5 µM with IL-6 was 14.1%; in the assay on TNF-α, 13.3%; with human DYRK1A and tau it was 42.6%. Besides, the inhibition at 1 µM in the assay on human DYRK1A and tau came out at 51.5%. The compound also came in with an inhibition at 0.25 µM in the assay on human DYRK1A and tau of 24.7%. This compound also had a concentration for half-maximal inhibition (IC50) against LRRK2 (G2019S) of under 100 nM.

`CNc1nc(Nc2ccc(C(=O)N3CCN(C4COC4)CC3)c3c2OCCO3)nc2[nH]cc(C(F)(F)F)c12` [Example 397, (8-((4-(methylamino)-5-(trifluoromethyl)-7H-pyrrolo[2,3-d]pyrimidin-2-yl)amino)-2,3-dihydrobenzo[b] [1,4]dioxin-5-yl) (4-(oxetan-3-yl)piperazin-1-yl)methanone]: in the assay with IL-6, the inhibition at 0.5 µM amounted to 32%. The inhibition at 0.5 µM in the assay with TNF-α amounted to 5.6%. Besides, in the assay on human DYRK1A and tau, the inhibition at 1 µM is 52.8%, the inhibition at 0.25 µM amounted to 12.9% and the inhibition at 0.5 µM was 41.1%. Besides, the IC50 on LRRK2 (G2019S) was under 100 nM.

For `CCNc1nc(Nc2ccc(C(=O)N3CCN(C4COC4)CC3)c3c2OCCO3)nc2[nH]cc(C(F)(F)F)c12` [Example 400, (8-((4-(ethylamino)-5-(trifluoromethyl)-7H-pyrrolo[2,3-d]pyrimidin-2-yl)amino)-2,3-dihydrobenzo[b] [1,4]dioxin-5-yl) (4-(oxetan-3-yl)piperazin-1-yl)methanone], the inhibition at 0.5 µM with IL-6 was 24.7%; in the assay on TNF-α, 1%; in the assay with human DYRK1A and tau, 46.5%. The inhibition at 1 µM in the assay on human DYRK1A and tau was determined as 69.4%. The same compound gave an inhibition at 0.25 µM in the assay with human DYRK1A and tau of 22.3%. The compound further yielded an IC50 on LRRK2 (G2019S) of under 100 nM.

Consider `O=C(c1ccc(Nc2nc(NC3CCC3)c3c(C(F)(F)F)c[nH]c3n2)c2c1OCCO2)N1CCN(C2COC2)CC1` [Example 407, (8-((4-(cyclo-butylamino)-5-(trifluoromethyl)-7H-pyrrolo[2,3-d]pyrimidin-2-yl)amino)-2,3-dihydrobenzo[b] [1,4]dioxin-5-yl) (4-(oxetan-3-yl)piperazin-1-yl)methanone], for which the inhibition at 0.5 µM in the assay on IL-6 came out at 20.2%; in the assay with TNF-α it was 5.3%; in the assay with human DYRK1A and tau, 39.4%. Moreover, the inhibition at 1 µM in the assay on human DYRK1A and tau came to 58.6%. The compound also displayed an inhibition at 0.25 µM in the assay with human DYRK1A and tau of 20.7%.

As for `O=C(c1ccc(Nc2nc(NC3CCCC3)c3c(C(F)(F)F)c[nH]c3n2)c2c1OCCO2)N1CCN(C2COC2)CC1` [Example 414, (8-((4-(cyclopentyl-amino)-5-(trifluoromethyl)-7H-pyrrolo[2,3-d]pyrimidin-2-yl)amino)-2,3-dihydrobenzo[b] [1,4]dioxin-5-yl) (4-(oxetan-3-yl)piperazin-1-yl)methanone], in the assay with MDA-MB-231 cell line, the GI50 fell in the range of 101 to 300 nM. Moreover, the inhibition at 0.5 µM with IL-6 is 47.3%; with TNF-α, 40.3%. Further, the half-inhibitory concentration (IC50) on LRRK2 (G2019S) is under 100 nM.

Turning to `O=C(c1ccc(Nc2nc(NC3CC3)c3c(C(F)(F)F)c[nH]c3n2)c2c1CCO2)N1CCC(N2CCOCC2)CC1` [Example 434, (7-((4-(cyclopropyl-amino)5-(trifluoromethyl)-7H-pyrrolo[2,3-d]pyrimidin-2-yl)amino)-2,3-dihydrobenzo-furan-4-yl)(4-morpho-linopiperidin-1-yl)methanone], the inhibition at 0.5 µM in the assay with IL-6 was found to be 34.1%. The inhibition at 0.5 µM with TNF-α was 16%. For the same compound, in the assay with human DYRK1A and tau, the inhibition at 1 µM worked out at 87.3%, the inhibition at 0.25 µM came out at 47.4% and the inhibition at 0.5 µM is 65.2%. This compound had an IC50 on LRRK2 (G2019S) of under 100 nM.

`COc1cc(P2(=O)CCN(C3CCOCC3)CC2)ccc1Nc1nc(NC2CC2)c2c(C(F)(F)F)c[nH]c2n1` [Example 435, 4-(4-((4-(cyclo-propylamino)-5-(trifluoromethyl)-7H-pyrrolo[2,3-d]pyrimidin-2-yl)amino)-3-methoxyphenyl)-1-(tetrahydro-2H-pyran-4-yl)-1,4-azaphosphinane 4-oxide]: the inhibition at 0.5 µM with IL-6 was found to be 22.2%. In the assay with TNF-α, the inhibition at 0.5 µM is 6.6%. In the assay with human DYRK1A and tau, the inhibition at 1 µM worked out at 73.4%, the inhibition at 0.25 µM is 22.7% and the inhibition at 0.5 µM came to 55.5%.

For `CCNc1nc(Nc2ccc(C(=O)N3CCC(N4CCOCC4)CC3)c3c2OCC3)nc2[nH]cc(C(F)(F)F)c12` [Example 438, (7-((4-(ethylamino)-5-(trifluoromethyl)-7H-pyrrolo[2,3-d]pyrimidin-2-yl)amino)-2,3-dihydrobenzo-furan-4-yl)(4-morpho-linopiperidin-1-yl)methanone], the inhibition at 0.5 µM with IL-6 came to 25.8%; with TNF-α it was 10.8%; with human DYRK1A and tau, 69.7%. Besides, the inhibition at 1 µM in the assay with human DYRK1A and tau came out at 86.8%. The same compound had an inhibition at 0.25 µM in the assay with human DYRK1A and tau of 46.3%. The IC50 against LRRK2 (G2019S) was under 100 nM.

`COCCNc1nc(Nc2ccc(C(=O)N3CCC(N4CCOCC4)CC3)c3c2OCC3)nc2[nH]cc(C(F)(F)F)c12` [Example 443, (7-((4-((2-methoxyethyl)amino)-5-(trifluoromethyl)-7H-pyrrolo[2,3-d]pyrimidin-2-yl)amino)-2,3-dihydrobenzo-furan-4-yl)(4-morpho-linopiperidin-1-yl)methanone]: the inhibition at 0.5 µM in the assay with IL-6 turned out to be 4.6%; in the assay on TNF-α, 10.8%. In addition, the IC50 against LRRK2 (G2019S) was under 100 nM.

In the case of `COCCNc1nc(Nc2ccc(P3(=O)CCN(C4CCOCC4)CC3)cc2OC)nc2[nH]cc(C(F)(F)F)c12` [Example 444, 4-(3-methoxy-4-((4-((2-methoxyethyl)amino)-5-(trifluoromethyl)-7H-pyrrolo[2,3-d]pyrimidin-2-yl)amino)phenyl)-1-(tetrahydro-2H-pyran-4-yl)-1,4-azaphosphinane 4-oxide], the inhibition at 0.5 µM in the assay with IL-6 is 20%. In addition, the inhibition at 0.5 µM in the assay with TNF-α is 14.4%. In addition, in the assay with human DYRK1A and tau, the inhibition at 1 µM stood at 65.6%, the inhibition at 0.25 µM stood at 21.7% and the inhibition at 0.5 µM was 45.7%.

Regarding `CCCNc1nc(Nc2ccc(C(=O)N3CCC(N4CCOCC4)CC3)c3c2OCC3)nc2[nH]cc(C(F)(F)F)c12` [Example 446, (4-morpholino-piperidin-1-yl)(7-((4-(propylamino)-5-(trifluoromethyl)-7H-pyrrolo[2,3-d]pyrimidin-2-yl)amino)-2,3-dihydrobenzo-furan-4-yl)methanone], the inhibition at 0.5 µM in the assay on IL-6 worked out at 17.3%. Also, the inhibition at 0.5 µM in the assay on TNF-α worked out at 22.5%. Further, in the assay on human DYRK1A and tau, the inhibition at 1 µM turned out to be 84.9%, the inhibition at 0.25 µM came out at 25.7% and the inhibition at 0.5 µM turned out to be 61.1%. The compound also gave an IC50 against LRRK2 (G2019S) of under 100 nM.

As to `O=C(c1ccc(Nc2nc(NCC3CC3)c3c(C(F)(F)F)c[nH]c3n2)c2c1CCO2)N1CCC(N2CCOCC2)CC1` [Example 461, (7-((4-((cyclo-propylmeth-yl)amino)-5-(trifluoromethyl)-7H-pyrrolo[2,3-d]pyrimidin-2-yl)amino)-2,3-dihydrobenzo-furan-4-yl)(4-morpho-linopiperidin-1-yl)methanone], the inhibition at 0.5 µM in the assay with IL-6 came to 25.7%. Moreover, the inhibition at 0.5 µM in the assay on TNF-α was found to be 2.3%. In addition, in the assay on human DYRK1A and tau, the inhibition at 1 µM was found to be 72.2%, the inhibition at 0.25 µM stood at 18.2% and the inhibition at 0.5 µM was 46.9%. For the same compound, on LRRK2 (G2019S), the IC50 is under 100 nM.

As for `CCNc1nc(Nc2ccc(C(=O)N3CCC(N4C[C@@H]5C[C@H]4CO5)CC3)c3c2OCC3)nc2[nH]cc(C(F)(F)F)c12` [Example 468], the inhibition at 0.5 µM in the assay with IL-6 amounted to 22.4%. Moreover, the inhibition at 0.5 µM in the assay on TNF-α turned out to be 16.5%. Also, in the assay on human DYRK1A and tau, the inhibition at 1 µM was found to be 92.5%, the inhibition at 0.25 µM was found to be 50.3% and the inhibition at 0.5 µM amounted to 75.4%. Besides, the half-maximal inhibitory concentration (IC50) against LRRK2 (G2019S) was under 100 nM.

Consider `CCNc1nc(Nc2ccc(C(=O)N3CC[C@H](N4CCOCC4)C3)c3c2OCC3)nc2[nH]cc(C(F)(F)F)c12` [Example 475, (S)-(7-((4-(ethylamino)-5-(trifluoromethyl)-7H-pyrrolo[2,3-d]pyrimidin-2-yl)amino)-2,3-dihydrobenzo-furan-4-yl)(3-morpholino-pyrrolidin-1-yl)methanone], for which the inhibition at 0.5 µM with IL-6 was 42.5%. For the same compound, the inhibition at 0.5 µM with TNF-α amounted to 4.7%. Further, in the assay with human DYRK1A and tau, the inhibition at 1 µM amounted to 86.8%, the inhibition at 0.25 µM came to 42.6% and the inhibition at 0.5 µM worked out at 65.3%. The same compound showed a half-maximal inhibitory concentration (IC50) on LRRK2 (G2019S) of under 100 nM.
